From patent publication US20080139608A1, “2,6,8, Trisubstituted 1-deazapurines and their different uses” (Universiteit Leiden, priority 2006, published 2008)

Columns and labels:
[1] = biological target: T1, human adenosine A1 receptor (Homo sapiens, UniProt P30542); assay: Radioligand binding assay, displacement of specific [3H]DPCPX binding; details: CHO cells expressing human adenosine A1 receptors; n = 3; read-out: A1 Ki ± SEM, displacement of specific [3H]DPCPX binding
T1 construct: expressed in transfected cells; host or cells: CHO cells
T1 sequence (P30542 1-326): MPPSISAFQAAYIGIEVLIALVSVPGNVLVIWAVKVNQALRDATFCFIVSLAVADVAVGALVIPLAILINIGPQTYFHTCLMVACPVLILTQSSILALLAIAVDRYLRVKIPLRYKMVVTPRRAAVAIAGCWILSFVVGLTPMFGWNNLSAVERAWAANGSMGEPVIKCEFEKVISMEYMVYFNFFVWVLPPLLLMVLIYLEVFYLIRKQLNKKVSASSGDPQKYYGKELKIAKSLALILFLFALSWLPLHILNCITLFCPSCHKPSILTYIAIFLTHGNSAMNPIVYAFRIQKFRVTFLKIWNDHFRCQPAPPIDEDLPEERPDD
Experimental: Radioligand Binding Studies [^3H]DPCPX was purchased from Amersham. All compounds made were tested in radioligand binding assays to determine their affinities at the human adenosine A1 receptor. The affinities at the A1 receptors were determined on CHO cells expressing the human receptors, using [^3H]DPCPX as the radioligand according to a previously described method.^11
Data Analysis Competition binding data were fit to a single-site binding model and plotted using the software package Prism (Graph Pad, San Diego, Calif., USA). The Cheng-Prusoff equation Ki=IC50/(1+[I]/Kd) was used to calculate Ki values, where Ki is the affinity constant for the competing ligand, [I] is the concentration of the free radioligand, and Kd is the affinity constant for the radioligand.

Row | SMILES | Ki [1] | melting point
1 | CCCc1nc2c(-c3ccccc3)cc(-c3ccccc3)nc2[nH]1 [Compound 6, 2,6-Diphenyl-8-propyl-1-deazapurine] | 2.45 ± 0.23 nM | 
2 | CC(C)c1nc2nc(-c3ccccc3)cc(-c3ccccc3)c2[nH]1 [Compound 7, 2,6-Diphenyl-8-isopropyl-1-deazapurine] | 0.61 ± 0.04 nM | 
3 | CC(C)CCc1nc2nc(-c3ccccc3)cc(-c3ccccc3)c2[nH]1 [Compound 9, 2,6-Diphenyl-8-isopentyl-1-deazapurine] |  | 196 to 197 °C
4 | c1ccc(-c2cc(-c3ccccc3)c3[nH]c(C4CCCC4)nc3n2)cc1 [Compound 11, 8-Cyclopentyl-2,6-diphenyl-1-deazapurine] | 0.62 ± 0.3 nM | 
5 | c1ccc(-c2cc(-c3ccccc3)c3[nH]c(C4CCCCC4)nc3n2)cc1 [Compound 12, 2,6-Diphenyl-8-cyclohexyl-1-deazapurine] | 0.9 ± 0.21 nM | 
